In ChEMBL document CHEMBL3272111, “Synthesis of 2-benzyloxy and 2-benzylthio analogues of primaquine as potential antimalarials” (1977) one finds Activity and Time data, which are given here for ten compounds.

In test [1] the test system is Plasmodium cynomolgi. In words: Antimalarial activity against Plasmodium cynomolgi infected in monkey assessed as curative activity without disease relapses until 90 days at 1.5 mg/kg, po by radical curative monkey test. Type of test: functional, organism-based. More on the design: dose 1.5 mg/kg.
Test [2] concerns Plasmodium cynomolgi. Description: Antimalarial activity against Plasmodium cynomolgi infected in monkey assessed as curative activity without disease relapses until 90 days at 1 mg/kg, po by radical curative monkey test. Type of test: functional, organism-based. More on the design: dose 1 mg/kg.
For test [3], the system named is Plasmodium berghei. In words: Antimalarial activity against Plasmodium berghei infected in mouse at 640 mg/kg. Type of test: functional, organism-based. Also on record: dose 640 mg/kg.
Test [4] has as its system Plasmodium cynomolgi. In words: Antimalarial activity against Plasmodium cynomolgi infected in monkey assessed as relapses day at 0.5 mg/kg, po. Type of test: functional.
Test [5] concerns Plasmodium cynomolgi. In words: Antimalarial activity against Plasmodium cynomolgi infected in monkey assessed as relapses day at 0.25 mg/kg, po. Type of test: functional.
The subject of test [6] is Plasmodium cynomolgi. Description: Antimalarial activity against Plasmodium cynomolgi infected in monkey assessed as relapses day at 1 mg/kg, po. Type of test: functional.
Test [7] deals with Plasmodium cynomolgi. Description: Antimalarial activity against Plasmodium cynomolgi infected in monkey assessed as relapses day at 10 mg/kg, po. Type of test: functional.
Test [8] concerns Plasmodium cynomolgi. In words: Antimalarial activity against Plasmodium cynomolgi infected in monkey assessed as relapses day at 0.375 mg/kg, po. The format is functional.
Test [9] deals with Plasmodium cynomolgi. Description: Antimalarial activity against Plasmodium cynomolgi infected in monkey assessed as curative activity without disease relapses until 90 days at 0.75 mg/kg, po by radical curative monkey test. The format is functional, organism-based. More on the design: dose 0.75 mg/kg.
Test [10] concerns Plasmodium cynomolgi. Description: Antimalarial activity against Plasmodium cynomolgi infected in monkey assessed as curative activity without disease relapses until 90 days at 0.375 mg/kg, po by radical curative monkey test. The format is functional, organism-based. Also on record: dose 0.375 mg/kg.
Test [11] relates to Plasmodium berghei. Description: Antimalarial activity against Plasmodium berghei infected in mouse at 320 to 640 mg/kg. Type of test: functional, organism-based.

Calls of active or inactive are those of the source. The calls are words filed in the database; no cut-off is given here.

As to `COc1cc(NC(C)CCCN)c2nc(OCc3ccccc3)ccc2c1` (stereo unspecified), in the test on Plasmodium cynomolgi [1], the result was Active.
With `COc1cc(NC(C)CCCN)c2nc(OCc3ccc(Cl)cc3Cl)ccc2c1.O=C(O)/C=C\C(=O)O` (stereo unspecified), the outcome in the test with Plasmodium cynomolgi [2] and in the test with Plasmodium berghei [3] was Active. Also, the Time in the test on Plasmodium cynomolgi [4] was 8 days.
For the compound `COc1cc(NC(C)CCCN)c2nc(OCc3ccc(F)cc3)ccc2c1.O=C(O)/C=C\C(=O)O` (stereo unspecified), the result in the test on Plasmodium cynomolgi [2] and in the test on Plasmodium berghei [3] was Active. For the same compound, the figures for the Time in the test with Plasmodium cynomolgi [5] and in the test on Plasmodium cynomolgi [4] were 5 days and 91 days, respectively.
Regarding `COc1cc(NC(C)CCCN)c2nc(OCc3cccc(C(F)(F)F)c3)ccc2c1.O=C(O)/C=C\C(=O)O` (stereo unspecified), in the test on Plasmodium cynomolgi [2], the result was Active. The figures for the Time in the test with Plasmodium cynomolgi [6] and in the test on Plasmodium cynomolgi [4] were 13 days and 6 days, respectively.
Turning to `COc1cc(NC(C)CCCN)c2nc(OCc3ccc(C(F)(F)F)cc3)ccc2c1.O=C(O)/C=C\C(=O)O` (stereo unspecified), the result with Plasmodium cynomolgi [2] was Active. The values for the Time with Plasmodium cynomolgi [5] and in the test with Plasmodium cynomolgi [4] were 9 days and 5 days, respectively.
Consider `COc1ccc(COc2ccc3cc(OC)cc(NC(C)CCCN)c3n2)cc1.O=C(O)/C=C\C(=O)O` (stereo unspecified), for which the Time with Plasmodium cynomolgi [7] was found to be 18 days; in the test on Plasmodium cynomolgi [6], 7 days.
For the compound `COc1cc(NC(C)CCCN)c2ncccc2c1.O=P(O)(O)O.O=P(O)(O)O` (stereo unspecified) [PRIMAQUINE PHOSPHATE], the Time in the test on Plasmodium cynomolgi [8] and in the test on Plasmodium cynomolgi [4] was 11 days throughout. Besides, the outcome with Plasmodium cynomolgi [9] was Active. In addition, the result with Plasmodium cynomolgi [10] was inactive.
On to `COc1cc(NC(C)CCCN)c2nc(OCc3ccc(Cl)cc3)ccc2c1.O=C(O)/C=C\C(=O)O` (stereo unspecified), for which, in the test on Plasmodium cynomolgi [6], the Time is 9 days.
For the compound `COc1cc(NC(C)CCCN)c2nc(SCc3ccc(Cl)cc3)ccc2c1.O=C(O)/C=C\C(=O)O` (stereo unspecified), the Time in the test with Plasmodium cynomolgi [7] and in the test on Plasmodium cynomolgi [4] was 7 days each time. The result with Plasmodium berghei [11] was Active.
In the case of `COc1cc(NC(C)CCCN)c2nc(SCc3ccccc3)ccc2c1.O=C(O)/C=C\C(=O)O` (stereo unspecified), the values for the Time in the test with Plasmodium cynomolgi [6] and in the test with Plasmodium cynomolgi [4] were 15 days and 9 days, respectively.
